Test results: US20260092057A1, “BCL-XL/BCL-2 DEGRADERS AND USES THEREOF” (Kymera Therapeutics, Inc., priority 2022, published 2026)
Like-named read-outs stand apart in the source and are kept apart here.

Legend:
[1] = tested on: MOLT-4 cells; test: CTG (CellTiter-Glo) cell viability assay, MOLT-4; type: cell-based; conditions: MOLT-4, 3 day, read-out: CTG Cell Viability Assay - MOLT-4 3 day: Average external-IC50
Protocol: (§1) Compound-mediated viability effect on MOLT-4 and Caki-2 was quantitatively determined using the CellTiter-Glo® Luminescent Cell Viability Assay kit from Promega (Catalog number G7570) following manufacturer's recommended procedures. Briefly, MOLT-4 and Caki-2 cells were seeded into 384 well plates (Grenier Bio-One, Catalog number 781080) with a density of 10,000 cells per well. Compounds were then added to the assay plate with final top concentration of 10 µM and 1:3 dilution series with total of 9 doses. The final DMSO concentration is normalized to 0.2%. The assay plates were incubated at 37° C. for 3 days under 5% CO2. Then the assay plate was equilibrated at room temperature for 10 minutes. To determine cell viability, 30 uL CellTiter Glo reagent was added to each well and the assay plate was centrifuged at 1000 rpm for 30 second, incubated at room temperature for 10 min, and analyzed by detecting the luminescence using a multimode plate reader (EnVision 2105, PerkinElmer). The data was then analyzed by software Prism 7.0 from GraphPad and the dose response curves are fit using a three-parameter logistic equation to calculate IC50.
(§2) The letter codes for MOLT-4 IC50 include: A (<0.1 μM); B (0.1-1.0 μM); C (>1.0-3.0 μM); and D (>3.0 μM). The letter codes for Caki-2 IC50 include: A (<5 μM); B (5-10 μM); C (>10-30.0 μM); and D (>30.0 μM).

[2] = tested on: Caki-2 cells; test: CTG (CellTiter-Glo) cell viability assay, Caki-2; type: cell-based; conditions: Homo sapiens, CAKI-2, 72 h, Caki-2, 3-day; read-out: CTG Chempartner/PHA- Caki-2 3-day: Average external-IC50
Protocol: as §1, §2

IC50 [1]	IC50 ([1]; Homo sapiens, MOLT-4, 72 h)	SMILES	IC50 [2]
	> 3000 nM	Cc1ncsc1-c1ccc([C@H](C)NC(=O)[C@@H]2C[C@@H](O)CN2C(=O)[C@@H](NC(=O)C2CCC3(CC2)CCN(CCCNc2ccc(S(=O)(=O)NC(=O)c4ccc(N5CCN(CC6=C(c7ccc(Cl)cc7)CC(C)(C)CC6)CC5)cc4Oc4cnc5[nH]ccc5c4)cc2S(=O)(=O)C(F)(F)F)CC3)C(C)(C)C)cc1 [I-116]	> 30000 nM
	> 3000 nM	Cc1ncsc1-c1ccc([C@H](C)NC(=O)[C@@H]2C[C@@H](O)CN2C(=O)[C@@H](NC(=O)CNCCCNc2ccc(S(=O)(=O)NC(=O)c3ccc(N4CCN(CC5=C(c6ccc(Cl)cc6)CC(C)(C)CC5)CC4)cc3Oc3cnc4[nH]ccc4c3)cc2S(=O)(=O)C(F)(F)F)C(C)(C)C)cc1 [I-115]	> 30000 nM
	> 3000 nM	Cc1ncsc1-c1ccc([C@H](C)NC(=O)[C@@H]2C[C@@H](O)CN2C(=O)[C@@H](NC(=O)CCCC(=O)N2CCN(CCCNc3ccc(S(=O)(=O)NC(=O)c4ccc(N5CCC([C@@H](O)c6ccccc6-c6ccc(Cl)cc6)CC5)cc4Oc4cnc5[nH]ccc5c4)cc3S(=O)(=O)C(F)(F)F)CC2)C(C)(C)C)cc1 (single isomer, unassigned) [I-59]	> 30000 nM
	> 3000 nM	Cc1ncsc1-c1ccc([C@H](C)NC(=O)[C@@H]2C[C@@H](N)CN2C(=O)[C@@H](NC(=O)C2CCN(CCCNc3ccc(S(=O)(=O)NC(=O)c4ccc(N5CCC([C@H](O)c6ccccc6-c6ccc(Cl)cc6)CC5)cc4Oc4cnc5[nH]ccc5c4)cc3S(=O)(=O)C(F)(F)F)CC2)C(C)(C)C)cc1 [I-92]	> 30000 nM
	> 3000 nM	Cc1ncsc1-c1ccc([C@H](C)NC(=O)[C@@H]2C[C@@H](O)CN2C(=O)[C@@H](NC(=O)CCCCCC(=O)NCCCNc2ccc(S(=O)(=O)NC(=O)c3ccc(N4CCC([C@@H](O)c5ccccc5-c5ccc(Cl)cc5)CC4)cc3Oc3cnc4[nH]ccc4c3)cc2S(=O)(=O)C(F)(F)F)C(C)(C)C)cc1 [I-55]	> 30000 nM
	> 3000 nM	Cc1ncsc1-c1ccc([C@H](C)NC(=O)[C@@H]2C[C@@H](O)CN2C(=O)[C@@H](NC(=O)C2CCN(C3CCN(CCCNc4ccc(S(=O)(=O)NC(=O)c5ccc(N6CCN(CC7=C(c8ccc(Cl)cc8)CC(C)(C)CC7)CC6)cc5Oc5cnc6[nH]ccc6c5)cc4S(=O)(=O)C(F)(F)F)CC3)CC2)C(C)(C)C)cc1 [I-90]	> 30000 nM
	> 3000 nM	Cc1ncsc1-c1ccc([C@H](C)NC(=O)[C@@H]2C[C@@H](O)CN2C(=O)[C@@H](NC(=O)CCCCCC(=O)N2CCN(Cc3ccc(-c4ccc(Cl)cc4)c([C@H](O)C4CCN(c5ccc(C(=O)NS(=O)(=O)c6ccc(NCCCN(C)C)c(S(=O)(=O)C(F)(F)F)c6)c(Oc6cnc7[nH]ccc7c6)c5)CC4)c3)CC2)C(C)(C)C)cc1 [I-111]	> 30000 nM
	> 3000 nM	Cc1ncsc1-c1ccc([C@H](C)NC(=O)[C@@H]2C[C@@H](O)CN2C(=O)[C@@H](NC(=O)CCCCCC(=O)N2CCN(Cc3ccc(-c4ccc(Cl)cc4)c([C@@H](O)C4CCN(c5ccc(C(=O)NS(=O)(=O)c6ccc(NCCCN(C)C)c(S(=O)(=O)C(F)(F)F)c6)c(Oc6cnc7[nH]ccc7c6)c5)CC4)c3)CC2)C(C)(C)C)cc1 [I-112]	> 30000 nM

Continued, compound first:

SMILES	IC50 [1]	IC50 ([1]; Homo sapiens, MOLT-4, 72 h)	IC50 [2]
Cc1ncsc1-c1ccc([C@H](C)NC(=O)[C@@H]2C[C@@H](O)CN2C(=O)[C@@H](NC(=O)CCCCCC(=O)N2CCN(C[C@]3(C)CCC(c4ccc(Cl)cc4)=C(CN4CCN(c5ccc(C(=O)NS(=O)(=O)c6ccc(NCCCN7CCOCC7)c(S(=O)(=O)C(F)(F)F)c6)c(Oc6cnc7[nH]ccc7c6)c5)CC4)C3)CC2)C(C)(C)C)cc1 [I-130]	1000 to 3000 nM		> 30000 nM
Cc1ncsc1-c1ccc([C@H](C)NC(=O)[C@@H]2C[C@@H](O)CN2C(=O)[C@@H](NC(=O)CCCCCC(=O)N(C)CC[C@H](CSc2ccccc2)Nc2ccc(S(=O)(=O)NC(=O)c3ccc(N4CCC([C@H](O)c5ccccc5-c5ccc(Cl)cc5)CC4)cc3)cc2S(=O)(=O)C(F)(F)F)C(C)(C)C)cc1 [I-73]		> 3000 nM	> 30000 nM
Cc1ncsc1-c1ccc([C@H](C)NC(=O)[C@@H]2C[C@@H](O)CN2C(=O)[C@@H](NC(=O)CCCC(=O)N2CCN(CC[C@H](CSc3ccccc3)Nc3ccc(S(=O)(=O)NC(=O)c4ccc(N5CCC([C@@H](O)c6ccccc6-c6ccc(Cl)cc6)CC5)cc4)cc3S(=O)(=O)C(F)(F)F)CC2)C(C)(C)C)cc1 [I-110]		100 to 1000 nM	> 30000 nM
Cc1ncsc1-c1ccc([C@H](C)NC(=O)[C@@H]2C[C@@H](O)CN2C(=O)[C@@H](NC(=O)CCCCCC(=O)NCC[C@H](CSc2ccccc2)Nc2ccc(S(=O)(=O)NC(=O)c3ccc(N4CCC([C@H](O)c5ccccc5-c5ccc(Cl)cc5)CC4)cc3)cc2S(=O)(=O)C(F)(F)F)C(C)(C)C)cc1 [I-70]		> 3000 nM	> 30000 nM
Cc1ncsc1-c1ccc([C@H](C)NC(=O)[C@@H]2C[C@@H](O)CN2C(=O)[C@@H](NC(=O)CCCCCC(=O)N2CCN(CCCNc3ccc(S(=O)(=O)NC(=O)c4ccc(N5CCN(C)CC5)cc4Oc4cnc5[nH]ccc5c4)cc3S(=O)(=O)C(F)(F)F)CC2)C(C)(C)C)cc1 [I-57]		> 3000 nM	> 30000 nM
Cc1ncsc1-c1ccc([C@H](C)NC(=O)[C@@H]2C[C@@H](O)CN2C(=O)[C@@H](NC(=O)C2CCN(c3ccc(S(=O)(=O)NC(=O)c4ccc(-c5ccc(Cl)cc5)c(CN5CCN(c6ccc(C(=O)NS(=O)(=O)c7ccc(N[C@H](CCN(C)C)CSc8ccccc8)c([N+](=O)[O-])c7)cc6)CC5)c4)cc3)CC2)C(C)(C)C)cc1 [I-15]		> 3000 nM	> 30000 nM
Cc1ncsc1-c1ccc([C@H](C)NC(=O)[C@@H]2C[C@@H](O)CN2C(=O)[C@@H](NC(=O)CCCCCC(=O)N[C@@H]2CCN(CCCNc3ccc(S(=O)(=O)NC(=O)c4ccc(N5CCN(CC6=C(c7ccc(Cl)cc7)CC(C)(C)CC6)CC5)cc4Oc4cnc5[nH]ccc5c4)cc3S(=O)(=O)C(F)(F)F)C2)C(C)(C)C)cc1 [I-95]		> 3000 nM	> 30000 nM
Cc1ncsc1-c1ccc([C@H](C)NC(=O)[C@@H]2C[C@@H](O)CN2C(=O)[C@@H](NC(=O)CCCCCC(=O)N2CCN(CC[C@H](CSc3ccccc3)Nc3ccc(S(=O)(=O)NC(=O)c4ccc(N5CC(N(C)C)C5)cc4)cc3S(=O)(=O)C(F)(F)F)CC2)C(C)(C)C)cc1 [I-49]		> 3000 nM	> 30000 nM
Cc1ncsc1-c1ccc([C@H](C)NC(=O)[C@@H]2C[C@@H](O)CN2C(=O)[C@@H](NC(=O)CCC(=O)N2CCN(CC[C@H](CSc3ccccc3)Nc3ccc(S(=O)(=O)NC(=O)c4ccc(N5CCC([C@@H](O)c6ccccc6-c6ccc(Cl)cc6)CC5)cc4)cc3S(=O)(=O)C(F)(F)F)CC2)C(C)(C)C)cc1 [I-119]		> 3000 nM	> 30000 nM
Cc1ncsc1-c1ccc([C@H](C)NC(=O)[C@@H]2C[C@@H](O)CN2C(=O)[C@@H](NC(=O)CCCCCCC(=O)N2CCN(C[C@]3(C)CCC(c4ccc(Cl)cc4)=C(CN4CCN(c5ccc(C(=O)NS(=O)(=O)c6ccc(NCCN7CCOCC7)c(S(=O)(=O)C(F)(F)F)c6)c(Oc6cnc7[nH]ccc7c6)c5)CC4)C3)CC2)C(C)(C)C)cc1 [I-93]		1000 to 3000 nM	> 30000 nM
Cc1ncsc1-c1ccc([C@H](C)NC(=O)[C@@H]2C[C@@H](O)CN2C(=O)[C@@H](NC(=O)CCCCCN2CCC(CNc3ccc(S(=O)(=O)NC(=O)c4ccc(N5CCN(CC6=C(c7ccc(Cl)cc7)CC(C)(C)CC6)CC5)cc4Oc4cnc5[nH]ccc5c4)cc3S(=O)(=O)C(F)(F)F)CC2)C(C)(C)C)cc1 [I-75]		100 to 1000 nM	> 30000 nM
Cc1ncsc1-c1ccc([C@H](C)NC(=O)[C@@H]2C[C@@H](O)CN2C(=O)[C@@H](NC(=O)CCCCCN(C)CCNc2ccc(S(=O)(=O)NC(=O)c3ccc(N4CCN(CC5=C(c6ccc(Cl)cc6)CC(C)(C)CC5)CC4)cc3Oc3cnc4[nH]ccc4c3)cc2S(=O)(=O)C(F)(F)F)C(C)(C)C)cc1 [I-77]		100 to 1000 nM	10000 to 30000 nM
Cc1ncsc1-c1ccc([C@H](C)NC(=O)[C@@H]2C[C@@H](O)CN2C(=O)[C@@H](NC(=O)CCCCCC(=O)N2CC3(CN(CCCNc4ccc(S(=O)(=O)NC(=O)c5ccc(N6CCN(CC7=C(c8ccc(Cl)cc8)CC(C)(C)CC7)CC6)cc5Oc5cnc6[nH]ccc6c5)cc4S(=O)(=O)C(F)(F)F)C3)C2)C(C)(C)C)cc1 [I-107]		100 to 1000 nM	> 30000 nM
Cc1ncsc1-c1ccc([C@H](C)NC(=O)[C@@H]2C[C@@H](O)CN2C(=O)[C@@H](NC(=O)CCCCCC(=O)N2CCN(CC[C@H](CSc3ccccc3)Nc3ccc(S(=O)(=O)NC(=O)c4ccc(N5CC[C@@H](N(C)C)C5)cc4)cc3S(=O)(=O)C(F)(F)F)CC2)C(C)(C)C)cc1 [I-46]		> 3000 nM	> 30000 nM
Cc1ncsc1-c1ccc([C@H](C)NC(=O)[C@@H]2C[C@@H](O)CN2C(=O)[C@@H](NC(=O)CCCCCC(=O)NCC[C@H](CSc2ccccc2)Nc2ccc(S(=O)(=O)NC(=O)c3ccc(N4CCC([C@@H](O)c5ccccc5-c5ccc(Cl)cc5)CC4)cc3)cc2S(=O)(=O)C(F)(F)F)C(C)(C)C)cc1 [I-82]		1000 to 3000 nM	10000 to 30000 nM
Cc1ncsc1-c1ccc([C@H](C)NC(=O)[C@@H]2C[C@@H](O)CN2C(=O)[C@@H](NC(=O)CCC(=O)N2CCN(CCCNc3ccc(S(=O)(=O)NC(=O)c4ccc(N5CCN(CC6=C(c7ccc(Cl)cc7)CC(C)(C)CC6)CC5)cc4Oc4cnc5[nH]ccc5c4)cc3S(=O)(=O)C(F)(F)F)CC2)C(C)(C)C)cc1 [I-79]		> 3000 nM	> 30000 nM
